In the SangsterLogP compilation:

SMILES | logP
O=C(NC1CC2(CC(F)C2)C1)c1ccccc1 (centres undefined) | 2.39
O=C(c1ccccc1)N1CC2CC1(C(F)(F)F)C2 | 1.93
O=C(c1ccccc1)N1CCC1 | 1.13
O=C(c1ccccc1)N1CC2CC(C1)CS(=O)(=O)C2 | -0.34
O=C(NCCCC(F)F)c1ccccc1 | 1.76
O=C(N[C@H]1C[C@@H]2C[C@@H]2C1)c1ccccc1 | 2.19
O=C(c1ccccc1)N1CCC(CF)C1 (centres undefined) | 1.4
O=C(NC1CCCCC1)c1ccccc1 | 2.72
O=C(c1ccccc1)N1CC2CCCC1(C(F)(F)F)C2 (centres undefined) | 2.67
O=C(c1ccccc1)N1CC[C@@H](F)[C@@H](F)C1 | 1.15

Results, then the compound that gave them:

logP | SMILES
2.23 | O=C(N[C@@H]1C[C@@H]2[C@H](C1)C2(F)F)c1ccccc1
2.42 | O=C(Nc1ccccc1)C1C(F)(F)C12CC2 (centres undefined)
1.19 | O=C(c1ccccc1)N1CC2COCC(C1)C2(F)F
2.47 | O=C(N[C@H]1C[C@@H]2[C@H](C1)C2(F)F)c1ccccc1
3.03 | O=C(Nc1ccccc1)C1CCCCC(F)(F)C1 (centres undefined)
1.64 | O=C(N[C@@H]1C[C@H]1C(F)F)c1ccccc1
2.26 | CCC(F)(F)CC(=O)Nc1ccccc1
2.88 | O=C(Nc1ccccc1)C1CCCCC1
1.74 | O=C(Nc1ccccc1)[C@@H]1CC[C@@H]1F
2.53 | O=C(NC1CC2(C1)CC(F)(F)C2)c1ccccc1
2.19 | O=C(Nc1ccccc1)C1(C(F)F)CCC1
2.32 | O=C(NC1CCC(F)(F)CC1)c1ccccc1
2.88 | O=C(Nc1ccccc1)[C@@H]1C[C@@H]2[C@H](C1)C2(F)F
3.02 | O=C(Nc1ccccc1)[C@H]1C[C@H](C(F)(F)F)C1
